Test results taken from patent US20030105034A1, “Pyridine carboxy derivatives and an aminosugar” (Astion Deveopment A/S, priority 2001, published 2003).
Entries after “also recorded” stand apart in the source; their conditions may differ. Marks after values point to notes of the source that are not given here.

What was measured:
[1] = system: tetradecanoyl phorbol acetate (TPA) induced ear inflammation; test: TPA induced ear inflammation test in the mouse, two doses of two complexes (Example 239); type: in vivo; details: Locoid solution 0.1%, 0.02 mg per application; positive control; ears weighed 3 h after TPA
Source text: The objective of this study is to assess the effect of two doses of two chemical complexes of the invention topically administered in the tetradecanoyl phorbol acetate (TPA) induced ear inflammation test in the mouse, a commonly employed method for screening and evaluation of antiinflammatory drugs. Locoid® cutaneous solution (0.1% hydrocortisone 17-butyrate) is used as a positive control.
At start of the acclimatisation period the mice is in the weight range of 18-20 g. An acclimatisation period of 7 days is allowed.
On the day of arrival the animals is randomly allocated to 7 groups, each of 9 mice.
The test substances are applied in 20 μl volumes to the inner surface of the right ear on day 0. 20 minutes before and again 20 minutes after TPA treatment. All groups is treated with 20 μl acetone on the left ear and with 20 μl TPA, 400 μg/ml, on the right ear.
Three hours after the TPA application the mice are sacrificed, the ears cut off and weighed. Mean weights and standard deviations are calculated. Percent inhibition of the oedema compared with group 1 is calculated for the groups 2-7. Weights of the left ears is used to assess the comparability of the groups and to calculate differences in weight between left and right ear.

[2] = system: tetradecanoyl phorbol acetate (TPA) induced ear inflammation; test: TPA induced ear inflammation test in the mouse, Compound 122 compared to its components (Example 241); type: in vivo; details: for Inhibition of ear swelling (%): versus vehicle group A, 3 h after TPA; for inhibition of ear swelling, result in words: Compound 122 7.0 mg, niacinamide 3.67 mg, N-acetylglucosamine 3.33 mg per application
Source text: The objective of this study is to assess the effect of Compound 122 as compared to its components in the tetradecanoyl phorbol acetate (TPA) induced ear inflammation test in the mouse, a commonly employed method for screening and evaluation of antiinflammatory drugs. Locoid® cutaneous solution (0.1% hydrocortisone 17-butyrate) is used as a positive control.
The test articles are the complex of the invention prepared according to example 118 (Compound 122 in the following) and its components niacinamide and N-acetylglucosamine, all obtained from Astion A/S, Denmark.
The study is performed in female SPF NMRI mice of the stock Bom:NMRI from M & B A/S, Denmark. At start of the acclimatisation period the mice is in the weight range of 18-20 g. An acclimatisation period of 7 days is allowed.
On day 0 the test substances are applied in 20 μl volumes to the inner surface of the right ear 20 minutes before and again 20 minutes after TPA treatment. All groups are treated with 20 μl acetone on the left ear and with 20 μl TPA, 400 μg/ml, on the right ear.
Three hours after the TPA application the mice are sacrificed, the ears cut off and weighed.
The amount of niacinamide and N-acetylglucosamine administered to groups C and D corresponds exactly to the amount of the two substances present in Compound 122 administered to group B.
Mean weights and standard deviations are calculated. Percent inhibition of the oedema compared with group A is calculated for the groups B-E. Weights of the left ears are used to assess the comparability of the groups and to calculate differences in weight between left and right ear.
Ear swelling is determined as the difference between the weight of right and left ear. The following inhibition of ear swelling is observed in groups B-E: […]

Row | SMILES | inhibition of ear swelling [1] | Inhibition of ear swelling (%) ([2]; 0.02 mg per application, group E, positive control) | Inhibition of ear swelling (%) ([2]; 3.67 mg per application, group C) | inhibition of ear swelling, result in words [2] | Inhibition of ear swelling (%) ([2]; 3.33 mg per application, group D)
1 | CCCC(=O)O[C@]1(C(=O)CO)CC[C@H]2[C@@H]3CCC4=CC(=O)CC[C@]4(C)[C@H]3[C@@H](O)C[C@@]21C [Hydrocortisone 17-butyrate, hydrocortisone 17-butyrate] | 90% | 89*** % |  |  | 
2 | NC(=O)c1cccnc1 [Niacinamide] |  |  | 31** % | only displayed a modest inhibition; also recorded: showed much lesser inhibition of ear swelling | 
3 | CC(=O)N[C@H]1C(O)O[C@H](CO)[C@@H](O)[C@@H]1O (stereo partly drawn) [N-acetylglucosamine] |  |  |  | only displayed a modest inhibition; also recorded: showed much lesser inhibition of ear swelling | 31* %
